Literature values, collected in patent publication US11661349B2, “Method for making coffee husk reducing agent” (Imam Abdulrahman Bin Faisal University, priority 2019, dated 2023).
In brackets after ≈: the same amount, converted by molar mass.

Tests used:
[1] = test system: Aspergillus niger; settings: A. niger; from Elefanti et al. 2013
[2] = test system: Aspergillus flavus; settings: A. flavus; from Elefanti et al. 2013

MIC [1]: 100 µg/mL (≈ 327 µM)
MIC [2]: 100 µg/mL (≈ 327 µM)
Structure (SMILES): OC(Cn1cncn1)(Cn1cncn1)c1ccc(F)cc1F [Flucanazole]
MFC (Minimum Fungicidal Concentration) [1]: 100 µg/mL (≈ 327 µM)
MFC (Minimum Fungicidal Concentration) [2]: 100 µg/mL (≈ 327 µM)
